The values that follow come from ChEMBL document CHEMBL5543126, “Combinatorial Ubiquitination REal-time PROteolysis (CURE-PROs): A Modular Platform for Generating Reversible, Self-Assembling Bifunctional Targeted Degraders” (J Med Chem, 2024).

The target in series [1] is T1, von Hippel-Lindau disease tumor suppressor/Bromodomain-containing protein 4 (Homo sapiens, UniProt O60885+P40337). Description: PROTAC activity at VHL/BRD4 in HEK293 cells assessed as induction of BRD4 degradation by measuring maximal level of degradation at 3 uM measured every 15 mins for 24 hrs in presence of BRD4 based ligand ((4S)-6-(4-chlorophenyl)-4-(2-(ethylamino)-2-oxoethyl)-1-methyl4Hbenzo[f][1,2,4]triazolo [4,3-a][1,4]diazepin-8-yl)boronic acid by HiBiT based Combinatorial Ubiquitination Real-time PROteolysis analysis. In kind it is cell-based. In general terms: The HiBiT peptide binds its large partner to form an active luciferase.
T1 sequence (P40337 whole entry, looked up, other chains not shown): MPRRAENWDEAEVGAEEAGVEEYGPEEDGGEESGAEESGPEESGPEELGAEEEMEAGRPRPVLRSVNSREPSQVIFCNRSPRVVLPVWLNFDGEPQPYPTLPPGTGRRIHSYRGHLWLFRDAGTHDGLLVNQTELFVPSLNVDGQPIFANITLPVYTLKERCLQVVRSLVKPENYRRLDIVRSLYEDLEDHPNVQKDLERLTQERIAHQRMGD

For series [2], the target named is T1, von Hippel-Lindau disease tumor suppressor/Bromodomain-containing protein 4. Kind of series: PROTAC activity at BRD4/VHL in human MCF7 cells assessed as induction of BRD4 degradation by measuring residual activity at 30 nM incubated for 24 hrs by Western blot analysis. It is filed as cell-based. (A western blot detects proteins with antibodies after separation by electrophoresis.)

The target is the same in series [3]. Description: PROTAC activity at BRD4/VHL in human MCF7 cells assessed as induction of BRD4 degradation by measuring residual activity at 100 nM incubated for 24 hrs by Western blot analysis. In kind it is cell-based.
Series [4] shares this target. Description: PROTAC activity at BRD4/VHL in human MCF7 cells assessed as induction of BRD4 degradation by measuring residual activity at 300 nM incubated for 24 hrs by Western blot analysis. In kind it is cell-based.
Series [5] shares this target. Kind of series: PROTAC activity at BRD4/VHL in human MCF7 cells assessed as induction of BRD4 degradation by measuring residual activity at 1 uM incubated for 24 hrs by Western blot analysis. In kind it is cell-based.
The target is the same in series [6]. Description: PROTAC activity at BRD4/VHL in human MCF7 cells assessed as induction of BRD4 degradation by measuring residual activity at 3 uM incubated for 24 hrs by Western blot analysis. In kind it is cell-based.
The target is the same in series [7]. Description: PROTAC activity at BRD4/VHL in human MCF7 cells assessed as induction of BRD4 degradation by measuring residual activity at 10 uM incubated for 24 hrs by Western blot analysis. In kind it is cell-based.
Series [8] shares this target. Description: PROTAC activity at BRD4/VHL in human MCF7 cells assessed as induction of BRD4 degradation by measuring residual activity at 3 uM incubated for 24 hrs in presence of BRD4 based ligand ((4S)-6-(4-chlorophenyl)-4-(2-(ethylamino)-2-oxoethyl)-1-methyl4Hbenzo[f][1,2,4]triazolo [4,3-a][1,4]diazepin-8-yl)boronic acid by Western blot based Combinatorial Ubiquitination Real-time PROteolysis analysis. It is filed as cell-based.

The target is the same in series [9]. Description: PROTAC activity at BRD4/VHL in human MCF7 cells assessed as induction of BRD4 degradation by measuring residual activity at 10 uM incubated for 24 hrs in presence of 1 uM BRD4 based ligand ((4S)-6-(4-chlorophenyl)-4-(2-(ethylamino)-2-oxoethyl)-1-methyl4Hbenzo[f][1,2,4]triazolo [4,3-a][1,4]diazepin-8-yl)boronic acid by Western blot based Combinatorial Ubiquitination Real-time PROteolysis analysis. It is filed as cell-based.

Series [10] in a line: Metabolic stability in C57BL/6 mouse liver microsome assessed as half life at 1 uM measured upto 60 mins by LC-MS/MS analysis. In kind it is ADME, microsomes.
Series [11] is described as follows: Metabolic stability in C57BL/6 mouse liver microsome at 1 uM measured upto 60 mins in presence of NADPH/UDPGA by LC-MS/MS analysis. It is filed as ADME, microsomes. A general note: Liver microsomes are a subcellular fraction often used to study metabolism.
The nature of series [12]: Metabolic stability in C57BL/6 mouse liver microsome at 1 uM measured upto 60 mins in absence of NADPH/UDPGA by LC-MS/MS analysis. It is filed as ADME. The conditions noted are these: liver microsomes, read-out: Stability.
Series [13] is described as follows: Metabolic stability in human liver microsome assessed as half life at 1 uM measured upto 60 mins by LC-MS/MS analysis. Particulars: liver microsomes. In kind it is ADME.
Series [14] in a line: Metabolic stability in human liver microsome at 1 uM measured upto 60 mins in presence of NADPH/UDPGA by LC-MS/MS analysis. In kind it is ADME. The conditions noted are these: liver microsomes, read-out: Stability.
Series [15] is described as follows: Metabolic stability in human liver microsome at 1 uM measured upto 60 mins in absence of NADPH/UDPGA by LC-MS/MS analysis. In kind it is ADME. Particulars: liver microsomes, read-out: Stability.
Series [16] is described as follows: Cmax in C57BL/6 mouse at 10 mg/kg, ip measured upto 24 hrs by LC-MS/MS analysis. It is filed as ADME, organism-based. Particulars: in vivo.
Series [17] can be described thus: Tmax in C57BL/6 mouse at 10 mg/kg, ip measured upto 24 hrs by LC-MS/MS analysis. Particulars: in vivo. In kind it is ADME, organism-based.
Series [18] is described as follows: AUClast in C57BL/6 mouse at 10 mg/kg, ip measured upto 24 hrs by LC-MS/MS analysis. It is filed as ADME, organism-based. The conditions noted are these: in vivo.
Series [19] is described as follows: Half life in C57BL/6 mouse at 10 mg/kg, ip measured upto 24 hrs by LC-MS/MS analysis. Particulars: in vivo. In kind it is ADME, organism-based.
Series [20] concerns the target T1, von Hippel-Lindau disease tumor suppressor/Bromodomain-containing protein 4. Description: PROTAC activity at VHL/BRD4 in HEK293 cells assessed as induction of BRD4 degradation by measuring degradation rate at 1 uM measured every 15 mins for 24 hrs in presence of VHL based ligand (2S,4R)-1-((S)-2-(2,3-dihydroxybenzamido)-3,3-dimethylbutanoyl)-4-hydroxy-N-(4-(4-methylthiazol-5-yl)benzyl)pyrrolidine-2-carboxamide by HiBiT based Combinatorial Ubiquitination Real-time PROteolysis analysis. It is filed as cell-based.

For series [21] the target is unchanged. Description: PROTAC activity at VHL/BRD4 in HEK293 cells assessed as induction of BRD4 degradation by measuring Tmax at 1 uM measured every 15 mins for 24 hrs in presence of VHL based ligand (2S,4R)-1-((S)-2-(2,3-dihydroxybenzamido)-3,3-dimethylbutanoyl)-4-hydroxy-N-(4-(4-methylthiazol-5-yl)benzyl)pyrrolidine-2-carboxamide by HiBiT based Combinatorial Ubiquitination Real-time PROteolysis analysis. In kind it is cell-based.

The target is the same in series [22]. Kind of series: PROTAC activity at BRD4/VHL in human MCF7 cells assessed as induction of BRD4 degradation by measuring residual activity at 1 uM incubated for 24 hrs in presence of 100 nM BRD4 based ligand ((4S)-6-(4-chlorophenyl)-4-(2-(ethylamino)-2-oxoethyl)-1-methyl4Hbenzo[f][1,2,4]triazolo [4,3-a][1,4]diazepin-8-yl)boronic acid by Western blot based Combinatorial Ubiquitination Real-time PROteolysis analysis. In kind it is cell-based.

Series [23] has the same target. Description: PROTAC activity at BRD4/VHL in human MCF7 cells assessed as induction of BRD4 degradation by measuring residual activity at 30 nM incubated for 24 hrs in presence of 10 uM VHL based ligand (2S,4R)-1-((S)-2-(2,3-dihydroxybenzamido)-3,3-dimethylbutanoyl)-4-hydroxy-N-(4-(4-methylthiazol-5-yl)benzyl)pyrrolidine-2-carboxamide by Western blot based Combinatorial Ubiquitination Real-time PROteolysis analysis. In kind it is cell-based.

The next series concerns MV4-11. Description: Antitumor activity against human MV4-11 cells xenografted in nude mouse assessed as reduction in BRD4 level in tumor at 10 mg/kg, ip administered for 4 hrs and measured at 9 to 12 hrs in presence of VHL based ligand (2S,4R)-1-((S)-2-(2,3-dihydroxybenzamido)-3,3-dimethylbutanoyl)-4-hydroxy-N-(4-(4-methylthiazol-5-yl)benzyl)pyrrolidine-2-carboxamide. It is filed as functional, organism-based. Particulars: time 9-12 hrs.

Each structure is given as a SMILES string. Active and inactive are the calls of the source. The calls are words filed in the database; no cut-off is given here. Some results are limits rather than exact numbers.

For the compound `Cc1ncsc1-c1ccc(CNC(=O)[C@@H]2C[C@@H](O)CN2C(=O)[C@@H](NC(=O)c2cccc(O)c2O)C(C)(C)C)cc1`, in [1], the Emax amounted to 93%. Also, the Activity was 102% in [2]; 108% in [3]; 86% in series [4]; 92% in series [5]; 113% in series [6]; 95% in series [7]. Also, the Activity amounted to 73% in [8] and 21% in series [9]. Further, the half-life at 1 µM in series [10] (C57BL/6, mouse, liver microsomes) was greater than 1 h; in series [13], greater than 1 h. In addition, the remaining at 1 h, 1 µM in series [11] (C57BL/6, mouse, liver microsomes, read-out: Stability) was 24%; in series [12] it was 83%; in [14], 73%; in [15], 87%. In series [16], this compound showed a Cmax of 1570 ng/mL. Also, in series [17], the Tmax was 0.5 h. In [18], the AUC(0-t) at 24 h worked out at 2340 ng·h/mL. The compound also showed a half-life in [19] of 6.3 h.

`CCNC(=O)C[C@@H]1N=C(c2ccc(Cl)cc2)c2cc(B(O)O)ccc2-n2c(C)nnc21`: the Activity in series [20] was 0.548 h⁻¹; in series [2] it was 116%; in series [3] it was 121%; in series [4], 147%; in series [5] it was 91%; in [6], 71%. Besides, the Activity stood at 68% in series [7], 56% in series [22] and 76% in [23]. Moreover, the Tmax was 19.5 h in series [21] and 0.5 h in series [17]. Moreover, in series [10] (mouse, microsomes, 1 h, 1 µM), the t1/2 was found to be 0.483 h. Also, the Stability in series [11] (mouse, microsomes, 1 h, 1 µM) was found to be 112%. The remaining at 1 h, 1 µM in series [12] worked out at 100%; in series [14], 107%; in series [15] it was 101%. In series [13], the half-life at 1 µM was greater than 1 h. The compound also registered a peak concentration (Cmax) in series [16] of 1480 ng/mL. For the same compound, the area under the curve AUC(0-t) at 24 h in [18] stood at 1860 ng·h/mL. In addition, the half-life in [19] is 6.3 h. In addition, the result in the series on MV4-11 was Active.

The term Emax denotes the maximal effect, on the per cent scale that the assay sets. As a reminder, the half-life is the time in which the quantity being followed falls by half. As a reminder, the Cmax is the highest concentration seen after dosing. In general, AUC(0-t) refers to the area under the concentration-time curve up to a stated or last time point.
